Laboratory results from ChEMBL document CHEMBL1131688, “Solution-phase and solid-phase synthesis of novel transition state inhibitors of coagulation enzymes incorporating a piperidinyl moiety” (Bioorg Med Chem Lett, 1999).

Assays:
Coagulation factor X [1] = target: T1, Coagulation factor X (Homo sapiens, UniProt P00742); assay: Inhibitory activity against Coagulation factor X with respect to Argatroban
Prothrombin = Prothrombin (Homo sapiens, UniProt P00734); assay: Inhibitory activity against thrombin with respect to Argatroban
Coagulation factor X [2] = target: T1, Coagulation factor X; assay: Inhibitory activity against Coagulation factor X

T1 sequence (P00742 41-179 limits assumed): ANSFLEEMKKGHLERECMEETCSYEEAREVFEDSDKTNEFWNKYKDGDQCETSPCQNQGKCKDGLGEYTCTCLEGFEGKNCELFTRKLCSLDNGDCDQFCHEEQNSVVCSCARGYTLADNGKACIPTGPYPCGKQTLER
T1 sequence (P00742 235-488 limits assumed): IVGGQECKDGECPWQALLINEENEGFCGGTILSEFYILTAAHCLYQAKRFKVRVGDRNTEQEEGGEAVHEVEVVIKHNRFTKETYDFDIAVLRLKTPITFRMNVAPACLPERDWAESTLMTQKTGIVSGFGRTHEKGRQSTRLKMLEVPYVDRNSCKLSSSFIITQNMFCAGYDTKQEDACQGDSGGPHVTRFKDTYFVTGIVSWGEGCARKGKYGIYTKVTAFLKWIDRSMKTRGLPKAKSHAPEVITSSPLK

| IC50 (Coagulation factor X [1]) | IC50 (Prothrombin) | IC50 (Coagulation factor X [2]) | SMILES |
| --- | --- | --- | --- |
| 3600 nM | 590 nM |  | O=C(Cn1cccc(NS(=O)(=O)Cc2ccccc2)c1=O)N[C@@H](CC1CCNCC1)C(=O)C(=O)NCc1ccccc1 |
| 430 nM | 4800 nM |  | CN(CC(=O)NC(CC1CCNCC1)C(=O)c1nccs1)C(=O)[C@@H](CC1CCCCC1)NCC(=O)O (stereo partly specified) |
| 4100 nM | 160 nM |  | CCS(=O)(=O)N[C@H](CC1CCCCC1)C(=O)N1CCC[C@H]1C(=O)NC(CC1CCNCC1)C(=O)c1nccs1 (stereo partly specified) |
| 2900 nM | 48 nM |  | O=C(NCc1ccccc1)C(=O)[C@H](CC1CCNCC1)NC(=O)[C@H]1CCCN1C(=O)[C@@H]1NCC[C@H]2CCCC[C@H]21 |
| 16000 nM | 220 nM |  | CCS(=O)(=O)N[C@H](CC1CCCCC1)C(=O)N1CCC[C@H]1C(=O)NC(CC1CCNCC1)C(=O)C(=O)O (stereo partly specified) |
| 1100 nM | 19400 nM |  | O=C(O)CN[C@H](CC1CCCCC1)C(=O)NCC(=O)NC(CC1CCNCC1)C(=O)c1nccs1 (stereo partly specified) |
| 2500 nM | 120 nM |  | CCS(=O)(=O)N[C@H](CC1CCCCC1)C(=O)N1CCC[C@H]1C(=O)N[C@@H](CC1CCNCC1)C(=O)c1nccs1 |
| 5200 nM | 1400 nM |  | O=C(CN1CCCCC(NS(=O)(=O)Cc2ccccc2)C1=O)N[C@@H](CC1CCNCC1)C(=O)C(=O)NCc1ccccc1 (stereo partly specified) |
| 54000 nM | 260 nM |  | O=C(NCc1ccccc1)C(=O)[C@H](CC1CCNCC1)NC(=O)[C@H]1CCCN1C(=O)CC(c1ccccc1)c1ccccc1 |
| 7800 nM | 3100 nM |  | O=C(O)CN[C@H](CC1CCCCC1)C(=O)N[C@@H](Cc1ccccc1)C(=O)NC(CC1CCNCC1)C(=O)c1nccs1 (stereo partly specified) |
|  |  | 134000 nM | CC1CNc2c(cccc2S(=O)(=O)N[C@@H](CCCNC(=N)N)C(=O)N2CCC(C)C[C@@H]2C(=O)O)C1 (single isomer, unassigned) [ARGATROBAN] |
